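Results reflect a 48-hour exposure of cells in 96-well plates to compound at five concentrations. The concentration for 50% growth inhibition is given as GI50. Definition used: TGI = concentration required for complete inhibition of growth.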
Columns and labels:
Test in all cases: NCI anticancer screen, dose series, 48 h
EKVX NSCLC = tested on: EKVX NSCLC
OVCAR-5 ovarian = tested on: OVCAR-5 ovarian
SF-539 CNS = tested on: SF-539 CNS
KM12 colon = tested on: KM12 colon
786-0 renal = tested on: 786-0 renal
BT-549 breast = tested on: BT-549 breast
NCI-H23 lung = tested on: NCI-H23 lung
OVCAR-4 ovarian = tested on: OVCAR-4 ovarian
SW-620 colon = tested on: SW-620 colon
SK-MEL-2 melanoma = tested on: SK-MEL-2 melanoma
TK-10 renal = tested on: TK-10 renal
T-47D breast = tested on: T-47D breast
M14 melanoma = tested on: M14 melanoma
MALME-3M melanoma = tested on: MALME-3M melanoma
SN12C renal = tested on: SN12C renal
SR leukemia = tested on: SR leukemia
A498 renal = tested on: A498 renal
NCI-H522 lung = tested on: NCI-H522 lung
SNB-19 CNS = tested on: SNB-19 CNS
CAKI-1 renal = tested on: CAKI-1 renal
RXF 393 renal = tested on: RXF 393 renal
HL-60(TB) leukemia = tested on: HL-60(TB) leukemia
COLO 205 colon = tested on: COLO 205 colon
RPMI-8226 leukemia = tested on: RPMI-8226 leukemia
MCF7 breast = tested on: MCF7 breast
IGROV1 ovarian = tested on: IGROV1 ovarian
MDA-MB-231 breast = tested on: MDA-MB-231 breast
UACC-62 melanoma = tested on: UACC-62 melanoma
CCRF-CEM leukemia = tested on: CCRF-CEM leukemia
SNB-75 CNS = tested on: SNB-75 CNS
LOX IMVI melanoma = tested on: LOX IMVI melanoma
HCT-116 colon = tested on: HCT-116 colon
K-562 leukemia = tested on: K-562 leukemia
SK-OV-3 ovarian = tested on: SK-OV-3 ovarian
NCI-H460 lung = tested on: NCI-H460 lung
PC-3 prostate = tested on: PC-3 prostate
HOP-92 NSCLC = tested on: HOP-92 NSCLC
HCT-15 colon = tested on: HCT-15 colon
SF-268 CNS = tested on: SF-268 CNS
DU-145 prostate = tested on: DU-145 prostate
HT29 colon = tested on: HT29 colon
ACHN renal = tested on: ACHN renal
SK-MEL-5 melanoma = tested on: SK-MEL-5 melanoma
OVCAR-3 ovarian = tested on: OVCAR-3 ovarian
UO-31 renal = tested on: UO-31 renal
SK-MEL-28 melanoma = tested on: SK-MEL-28 melanoma
HCC-2998 colon = tested on: HCC-2998 colon
MOLT-4 leukemia = tested on: MOLT-4 leukemia
A549 NSCLC = tested on: A549 NSCLC
SF-295 CNS = tested on: SF-295 CNS
UACC-257 melanoma = tested on: UACC-257 melanoma
NCI/ADR-RES ovarian = tested on: NCI/ADR-RES ovarian
U251 CNS = tested on: U251 CNS
MDA-MB-435 = tested on: MDA-MB-435
HS 578T breast = tested on: HS 578T breast
HOP-62 NSCLC = tested on: HOP-62 NSCLC
NCI-H226 lung = tested on: NCI-H226 lung
OVCAR-8 ovarian = tested on: OVCAR-8 ovarian

`Cc1cc(C)c(CNC(=O)c2cc(-c3ccc(CN4CCOCC4)cc3)cc3c2cnn3C2CCCC2)c(=O)[nH]1` was tested, and the GI50 (EKVX NSCLC) was 11.8 µM, the TGI (EKVX NSCLC) was 28.2 µM and the GI50 (OVCAR-5 ovarian) was 22.1 µM. The TGI (OVCAR-5 ovarian) was 63.5 µM, the GI50 (SF-539 CNS) was 16.1 µM and the TGI (SF-539 CNS) was 34.4 µM. For the same compound, the GI50 (KM12 colon) was 18.6 µM, the TGI (KM12 colon) was 49 µM and the GI50 (786-0 renal) was 17.6 µM. It also gave a TGI (786-0 renal) of 42.4 µM, a GI50 (BT-549 breast) of 17.1 µM and a TGI (BT-549 breast) of 41.7 µM. It also gave a GI50 (NCI-H23 lung) of 18.5 µM, a TGI (NCI-H23 lung) of 47.8 µM and a GI50 (OVCAR-4 ovarian) of 21.3 µM. The TGI (OVCAR-4 ovarian) was 91.6 µM, the GI50 (SW-620 colon) was 25.3 µM and the TGI (SW-620 colon) was > 100 µM. For the same compound, the GI50 (SK-MEL-2 melanoma) was 17.8 µM, the TGI (SK-MEL-2 melanoma) was 35.4 µM and the GI50 (TK-10 renal) was 16.4 µM. For the same compound, the TGI (TK-10 renal) was 35.9 µM, the GI50 (T-47D breast) was 12.9 µM and the TGI (T-47D breast) was 50.4 µM. For the same compound, the GI50 (M14 melanoma) was 18.8 µM, the TGI (M14 melanoma) was 43.1 µM and the GI50 (MALME-3M melanoma) was 16.7 µM. The TGI (MALME-3M melanoma) was 34.1 µM, the GI50 (SN12C renal) was 19.3 µM and the TGI (SN12C renal) was 46.6 µM. The GI50 (SR leukemia) was 22.4 µM, the TGI (SR leukemia) was 65.5 µM and the GI50 (A498 renal) was 15.5 µM. For the same compound, the TGI (A498 renal) was 34.6 µM, the GI50 (NCI-H522 lung) was 16.2 µM and the TGI (NCI-H522 lung) was 30.4 µM. It also gave a GI50 (SNB-19 CNS) of 24.7 µM, a TGI (SNB-19 CNS) of 77.1 µM and a GI50 (CAKI-1 renal) of 16.1 µM. For the same compound, the TGI (CAKI-1 renal) was 42.2 µM, the GI50 (RXF 393 renal) was 14.6 µM and the TGI (RXF 393 renal) was 32.6 µM. The GI50 (HL-60(TB) leukemia) was 16.5 µM, the TGI (HL-60(TB) leukemia) was 55.2 µM and the GI50 (COLO 205 colon) was 14.7 µM. The TGI (COLO 205 colon) was 34 µM, the GI50 (RPMI-8226 leukemia) was 13.7 µM and the TGI (RPMI-8226 leukemia) was 50.7 µM. For the same compound, the GI50 (MCF7 breast) was 10.8 µM, the TGI (MCF7 breast) was 28.8 µM and the GI50 (IGROV1 ovarian) was 17.6 µM. For the same compound, the TGI (IGROV1 ovarian) was 67.8 µM, the GI50 (MDA-MB-231 breast) was 19.9 µM and the TGI (MDA-MB-231 breast) was 51.7 µM. It also gave a GI50 (UACC-62 melanoma) of 17.8 µM, a TGI (UACC-62 melanoma) of 43.2 µM and a GI50 (CCRF-CEM leukemia) of 26.3 µM. It also gave a TGI (CCRF-CEM leukemia) of 97.5 µM, a GI50 (SNB-75 CNS) of 12.6 µM and a TGI (SNB-75 CNS) of 32.4 µM. The GI50 (LOX IMVI melanoma) was 15.3 µM, the TGI (LOX IMVI melanoma) was 34.2 µM and the GI50 (HCT-116 colon) was 18.2 µM. For the same compound, the TGI (HCT-116 colon) was 50.2 µM, the GI50 (K-562 leukemia) was 21.4 µM and the TGI (K-562 leukemia) was > 100 µM. It also gave a GI50 (SK-OV-3 ovarian) of 20.1 µM, a TGI (SK-OV-3 ovarian) of 44.5 µM and a GI50 (NCI-H460 lung) of 16.1 µM. For the same compound, the TGI (NCI-H460 lung) was 43 µM, the GI50 (PC-3 prostate) was 17.9 µM and the TGI (PC-3 prostate) was 54.6 µM. The GI50 (HOP-92 NSCLC) was 10.2 µM, the TGI (HOP-92 NSCLC) was 27.2 µM and the GI50 (HCT-15 colon) was 10.2 µM. It also gave a TGI (HCT-15 colon) of 25.9 µM, a GI50 (SF-268 CNS) of 13.9 µM and a TGI (SF-268 CNS) of 43.8 µM. For the same compound, the GI50 (DU-145 prostate) was 21.5 µM, the TGI (DU-145 prostate) was 81 µM and the GI50 (HT29 colon) was 11.8 µM. It also gave a TGI (HT29 colon) of 27.1 µM, a GI50 (ACHN renal) of 15.1 µM and a TGI (ACHN renal) of 34.6 µM. The GI50 (SK-MEL-5 melanoma) was 13.7 µM, the TGI (SK-MEL-5 melanoma) was 27.3 µM and the GI50 (OVCAR-3 ovarian) was 13.4 µM. It also gave a TGI (OVCAR-3 ovarian) of 30.9 µM, a GI50 (UO-31 renal) of 8.8 µM and a TGI (UO-31 renal) of 26.6 µM. For the same compound, the GI50 (SK-MEL-28 melanoma) was 15.7 µM, the TGI (SK-MEL-28 melanoma) was 32.4 µM and the GI50 (HCC-2998 colon) was 16.6 µM. For the same compound, the TGI (HCC-2998 colon) was 35.5 µM, the GI50 (MOLT-4 leukemia) was 17.5 µM and the TGI (MOLT-4 leukemia) was > 100 µM. For the same compound, the GI50 (A549 NSCLC) was 17.8 µM, the TGI (A549 NSCLC) was 41.6 µM and the GI50 (SF-295 CNS) was 16.6 µM. It also gave a TGI (SF-295 CNS) of 36.5 µM, a GI50 (UACC-257 melanoma) of 21 µM and a TGI (UACC-257 melanoma) of 42.8 µM. For the same compound, the GI50 (NCI/ADR-RES ovarian) was 15.1 µM, the TGI (NCI/ADR-RES ovarian) was 42.5 µM and the GI50 (U251 CNS) was 15.2 µM. The TGI (U251 CNS) was 31.7 µM, the GI50 (MDA-MB-435) was 15.9 µM and the TGI (MDA-MB-435) was 35 µM. For the same compound, the GI50 (HS 578T breast) was 19.1 µM, the TGI (HS 578T breast) was 64 µM and the GI50 (HOP-62 NSCLC) was 18 µM. The TGI (HOP-62 NSCLC) was 39.3 µM, the GI50 (NCI-H226 lung) was 17.5 µM and the TGI (NCI-H226 lung) was 37 µM. For the same compound, the GI50 (OVCAR-8 ovarian) was 17.3 µM and the TGI (OVCAR-8 ovarian) was 57.9 µM.
